The values that follow come from patent US8058442B2 (Technion Research and Development Foundation Ltd., priority 2002, dated 2011).

Where two headings read alike, the source gives them in different places. Marks after values point to notes of the source that are not given here.

Data set [1] is described as follows: Iron chelation in solution: fluorescence dequenching of iron-quenched calcein. Particulars: Fe-CAL in HBS pH 7.4, room temperature, 1 h incubation, read-out: half maximal dequenching level. On the procedure: Iron binding was determined by the chelator capacity for restoring the fluorescence of iron-quenched calcein (CAL), a dynamic fluorescent metallosensor. The iron-scavenging properties of the chelators were assessed in solution, by mixing iron salts with free CAL.
Iron precomplexed calcein (Fe-CAL) solutions of 1 μm (in Hepes 20 mM buffered saline, pH 7.4=HBS) were incubated in the presence of the indicated concentrations of different chelators at room temperature and the fluorescence intensity (475 nm->520 nm) followed with time in a Tecan fluorescence plate reader, using 96-well culture plates (Nunc) at 100 μl final volume. The time-dependent complexation of iron from Fe-CAL by the chelators was followed by fluorescence dequenching. The fluorescence intensity attained after 1 h incubation is shown as a function of the chelator concentration.
The corresponding half maximal dequenching level for the corresponding chelator was (in μM) (rank order from the fastest acting to the slowest): […]

For data set [2], the system named is human erythroleukemia K562 cells. The experiment in a line: Iron permeation of the chelators into calcein-loaded K562 cells. Format: cell-based. Particulars: 5 μM chelator, 37° C. The protocol: The iron-scavenging properties of the chelators were assessed in human erythroleukemia K562 cells, by loading with the permeant CAL-AM probe, in situ formation of free CAL, and binding of cytosolic labile iron. Calcein-AM readily passes through the cell membrane of viable cells because of the enhanced hydrophobicity as compared to Calcein. When Calcein-AM permeates into the cytoplasm, it is hydrolyzed by esterases in cells to the parent Calcein, a pH-independent, cytosolic fluorescent marker, which remains inside of the cell. The time-dependent recovery of fluorescence in the presence of a given chelator provided a continuous measure for the capacity of the chelator to access the iron/CAL-containing compartment.
Calcein uptake and intracellular fluorescence were determined as follows: K562 erythroleukemia cells were preloaded with calcein (CAL) by incubation with […] of the fluorescent probe CAL-AM for 5 min at 37° C., washed and incubated in HBS medium containing anti-CAL antibodies in order to quench traces of extracellular-associated fluorescence. The suspensions were placed in 96-well plates (100 μl final volume) and analyzed as described above while maintaining the system at 37° C. At the indicated time, the indicated chelator was added so as to reach a final 5 μM concentration.
The values of half maximal time (sec) and fraction of fluorescence recovery were: […]

Data set [3] can be described thus: n-octanol/water shake-flask distribution coefficient. Format: physicochemical. Particulars: for D in 0.01N HCl / D in 0.01N NaOH / D in H2O: distribution ratio D = Corg/Caq. The source says: The partition coefficient (Pow) or the distribution ratio (Dow) between octanol and water are most commonly used measures of the hydrophobicity of compounds. Dow can depend on the concentration of solute, but at reasonably low concentrations. If the solute is in the same form in both phases, Dow becomes constant and is called the partition coefficient Pow. Pow plays an important role in determining the physico-chemical properties and the behaviour of numerous organic compounds in biological systems. Pow is applied to quantitative structure-activity relationship studies, and as a measure of hydrophobicity. All the partition measurements are carried out using a 1-octanol/water shake-flask procedure (Leo, A J. 1991, “Hydrophobic parameter: measurement and calculation”, Methods Enzymol. 202:544-91) or simply by the elution time of solute from HPLC column. Thereafter, the transport properties of the iron-complexes are examined in the water/lipid membrane system (liposomes), which mimics biomembranes much better than the octanol/water system (Breuer et al, 1995).
1-Octanol (Riedel-deHaën, synthesis grade (250-270 nm abs.<0.06) and glass distilled deionized water were used as the partitioning solutions. A Hewlett-Packard 8450A diode array spectrophotometer was used for the quantitative determination of the tested com-pounds in the standard solutions and in the partitioned solutions. The aqueous phase stock solutions were shaken with an excess of 1-octanol to presaturate them and were then allow-ed to stand overnight before use. The 1-octanol stock solutions were also presaturated with 10 mM NaOH and allowed to settle overnight. The experiments were performed in 10-ml stoppered centrifuge tubes. The tubes were inverted gently for 5 min and then, to assure complete phase separation, they were centrifuged for 20 min at 1,000-2,000 g. The aqueous and organic phases were removed separately and analyzed by UV spectrophotometry.
Lipophilicity plays an important role in drug absorption and distribution. The logarithm of the n-octanol/water distribution coefficients (logD) is the most commonly used measure of the lipophilicity of a drug candidate. Here we used an n-octanol/water shake-flask procedure to determine logD. […] In acidic and basic solution, all the test compounds have low log D values, which refer to a good hydrophilicity. This can be explained by the formation of oxinium chloride (in acid) and sodium oxinate (in base) derivatives.

Turning to `N[C@@H](CSCc1ccc(O)c2ncccc12)C(=O)O` [Compound M12, S-(8-hydroxyquinolin-5-ylmethyl)-L-cysteine], the EC50 in data set [1] (FIG. 1C) is 6 µM.
Turning to `N[C@H](Cc1ccc(O)c2ncccc12)C(=O)O` [Compound M9, D-3-(8-hydroxyquinolin-5-yl)alanine], the EC50 in data set [1] (FIG. 1B) was 9.7 µM.
Take `Cc1c(O)c(=O)ccn1C` [Compound L1, 1,2-dimethyl-3-hydroxy-pyridin-4-one, reference compound]: the EC50 was 8.3 µM in data set [1] (FIG. 1A), 8.4 µM in data set [1] (FIG. 1B) and 6.6 µM in data set [1] (FIG. 1C).
Regarding `O=C(NN=Cc1ccccc1O)c1ccncc1` [SIH, salicylaldehyde isonicotinoyl hydrazone, reference compound], the half maximal time was 125 s in data set [2] (FIG. 2A) and 100 s in data set [2] (FIG. 2C).
Consider `NC(Cc1ccc(O)c2ncccc12)C(=O)O` (racemic) [HLM8, DL-3-(8-hydroxyquinolin-5-yl)alanine], for which the EC50 in data set [1] (FIG. 1A) is 6 µM. For the same molecule, in data set [2] (FIG. 2A), the half maximal time is 600 s. Further, the logD (usually the decadic logarithm of the distribution of all forms, ionised or not, between an organic phase and buffer at a given pH) was under -2 in data set [3], under -2 in data set [3] (pH 2) and -1.7 in data set [3] (pH 12). The “D in 0.01N HCl” value in data set [3] (0.01N HCl) amounted to 0.0031. For the same molecule, the “D in 0.01N NaOH” value in data set [3] (0.01N NaOH) turned out to be 0.020. Moreover, the “D in H2O” value in data set [3] (H2O) is listed as 0.0049.
`CCOC(=O)C(N)Cc1ccc(O)c2ncccc12` (racemic) [HLM9, DL-3-(8-hydroxyquinolin-5-yl)alanine ethyl ester]: the EC50 in data set [1] (FIG. 1A) was 7.2 µM. In addition, in data set [2] (FIG. 2A), the half maximal time was 200 s. For the same molecule, the logD was -1.7 in data set [3], -1.42 in data set [3] (pH 5.64) and under -2 in data set [3] (pH 12). For the same molecule, the “D in 0.01N NaOH” value in data set [3] (0.01N NaOH) is listed as 0.0014. The “D in H2O” value in data set [3] (H2O) was found to be 0.018. Also, the D in data set [3] (phosphate buffer (pH = 5.64), printed in the 0.01N HCl column) is 0.038^b.
As for `CCOC(=O)C(Cc1ccc(O)c2ncccc12)(NC(C)=O)C(=O)OCC`, the EC50 in data set [1] (FIG. 1A) is 5 µM. Besides, the logD in data set [3] (H2O, read-out: LogD in H2O) was 2.19; in data set [3] (pH 2, 0.01N HCl, read-out: LogD in 0.01N HCl), -1.37; in data set [3] (pH 12, 0.01N NaOH, read-out: LogD in 0.01N NaOH), -1.01. Moreover, the “D in 0.01N HCl” value in data set [3] (0.01N HCl) came out at 0.043. Further, the “D in 0.01N NaOH” value in data set [3] (0.01N NaOH) was found to be 0.097. Also, the “D in H2O” value in data set [3] (H2O) is given as 155.68.
For `N[C@@H](Cc1ccc(O)c2ncccc12)C(=O)O` [Compound M10, L-3-(8-hydroxyquinolin-5-yl)alanine], the EC50 in data set [1] (FIG. 1B) is 9.85 µM. The half maximal time in data set [2] (FIG. 2B) is 1050 s.
For the molecule `N[C@H](CSCc1ccc(O)c2ncccc12)C(=O)O` [Compound M11, S-(8-hydroxyquinolin-5-ylmethyl)-D-cysteine], in data set [1] (FIG. 1C), the EC50 was 5.4 µM.
For `CC(=O)N(O)CCCCCNC(=O)CCC(=O)N(O)CCCCCNC(=O)CCC(=O)N(O)CCCCCN` [DFO, desferrioxamine B, reference compound], the EC50 in data set [1] (FIG. 1A), in data set [1] (FIG. 1B) and in data set [1] (FIG. 1C) was 0.5 µM in each case.
For `CCOC(=O)N1CCN(Cc2ccc(O)c3ncccc23)CC1` [HLA16, ethyl 4-(8-hydroxyquinolin-5-ylmethyl)-1-piperazine carboxylate], the EC50 is 3.5 µM in data set [1] (FIG. 1A) and 4.4 µM in data set [1] (FIG. 1B). For the same molecule, the figures for the half maximal time in data set [2] (FIG. 2A) and in data set [2] (FIG. 2B) were 225 s and 220 s, respectively. Further, the logD in data set [3] was 1.79; in data set [3] (pH 2), -1.74; in data set [3] (pH 12), 0.39. For the same molecule, the “D in 0.01N HCl” value in data set [3] (0.01N HCl) worked out at 0.018. Also, the “D in 0.01N NaOH” value in data set [3] (0.01N NaOH) came to 2.44. Further, the “D in H2O” value in data set [3] (H2O) is on record as 62.96.
Regarding Fmoc-KKC(HQ)L-NH2 [Compound M7], the EC50 in data set [1] (FIG. 1C) is 3.4 µM.
